Measurements reported in ChEMBL document CHEMBL1201862, “PubChem BioAssay data set” (2004).
Activity calls are given as the source filed them.

How the values were obtained:
[1] = kidney cell line viability loss – HEK293T, luminescence plate reader, powder samples, set 4, cytotoxicity control, dose response (AID 651863); assay type: functional, cell-based; conditions: HEK293
[2] = target: COUP transcription factor 2 (Homo sapiens, UniProt P24468); assay: Luminescence-based cell-based high throughput dose response assay to identify inhibitors of COUP-TFII (NR2F2).; assay type: functional;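 further: HEK293 cells transiently cotransfected with COUP-TFII expression vector and reporter; luciferase reporter luminescence driven by COUP-TFII from the pX2-168 reporter plasmid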
[3] = target: T1, Heat shock factor protein 1 (Mus musculus, UniProt P38532); assay: enhancement of HSF1-driven luciferase signal – cell-based, NIH3T3, luminescence, dose retest, confirmation (AID 435004); assay type: functional;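 further: stress induced by proteasome inhibitor MG132 added 30 min after compound; luciferase reporter driven by HSF1 response element in NIH3T3 cells; actives raise luminescence as potentiators of the MG132 stress response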
T1 sequence (P38532 whole entry): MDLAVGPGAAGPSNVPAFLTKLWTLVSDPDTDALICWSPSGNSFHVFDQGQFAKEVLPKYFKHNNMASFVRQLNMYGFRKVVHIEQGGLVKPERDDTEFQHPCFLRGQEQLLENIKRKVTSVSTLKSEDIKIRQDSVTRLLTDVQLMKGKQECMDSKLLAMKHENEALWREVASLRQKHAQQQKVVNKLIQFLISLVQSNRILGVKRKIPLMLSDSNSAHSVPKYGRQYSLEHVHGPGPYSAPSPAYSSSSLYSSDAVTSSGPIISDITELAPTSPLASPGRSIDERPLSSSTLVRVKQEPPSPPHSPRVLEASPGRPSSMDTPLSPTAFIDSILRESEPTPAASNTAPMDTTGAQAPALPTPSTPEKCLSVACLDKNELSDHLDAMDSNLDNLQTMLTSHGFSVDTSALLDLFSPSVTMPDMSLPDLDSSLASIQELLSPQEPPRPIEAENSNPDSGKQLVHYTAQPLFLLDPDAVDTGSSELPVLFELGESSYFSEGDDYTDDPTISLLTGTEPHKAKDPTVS

HEK293 = assay: viability loss in HEK293T cells – cell-based, ATP luminescence, cherry-pick samples, cytotoxicity control, dose response (AID 687005); assay type: functional; conditions: Homo sapiens;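 further: cells exposed to compound for 48 hours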
[4] = inhibition of Env-driven cell fusion – HIV entry, plate reader, dry powder, dose response (AID 687023); assay type: functional, cell-based
[5] = HEK293 Cytotoxicity Assay Measured in Cell-Based System Using Plate Reader - 7071-01_Inhibitor_Dose_CherryPick_Activity_Set2.; assay type: functional
[6] = HIV-1 AD8 envelope cell-cell fusion blockers – cherry-pick, dose response (AID 652062); assay type: functional, cell-based;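 further: luciferase signal from cell-cell fusion driven by HIV-1 clade B AD8 Env; potency is for inhibitors of fusion seen as a drop in luminescence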
[7] = blockers of HIV-1 envelope-mediated cell-cell fusion – cherry-pick, dose response (AID 652057); assay type: functional, cell-based
[8] = target: T2, Disintegrin and metalloproteinase domain-containing protein 17 (Homo sapiens, UniProt P78536); assay: inhibition of ADAM17 substrate cleavage – biochemical, quenched FRET substrate, counter-screen for ADAM10 exosite inhibitor project, dose response (AID 743253)
[9] = potency of ADAM10 substrate cleavage blockers – biochemical, QFRET, dose response (AID 743254);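 further: ADAM10 enzyme with the DM2 quenched FRET peptide as substrate; EDANS fluorescence gain as the protease cuts the substrate; inhibitor potency against ADAM10 proteolytic activity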
[10] = target: T2, Disintegrin and metalloproteinase domain-containing protein 17; assay: exosite inhibitors of ADAM17, dose response, biochemical (AID 743260)
[11] = inhibition of ADAM10 peptide cleavage – biochemical, FRET peptide substrate, recombinant human ADAM10, selectivity assay for ADAM17 exosite inhibitor project, dose response (AID 743259);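 further: ADAM10 enzyme cleaving a FRET peptide substrate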
[12] = target: NAD-dependent protein deacylase sirtuin-5, mitochondrial (Homo sapiens, UniProt Q9NXA8); assay: sirtuin-5 deacylation blockers, concentration series – biochemical, fluorescence imaging, cherry-pick, set 5, dose response (AID 720591);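 further: desuccinylation of succinyl peptide AMC substrate read as fluorescence after trypsin release; potency of inhibitors that lower fluorescence and may act on trypsin instead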
[13] = OVCAR-3 cell viability loss – plate reader, dry powder samples, PAX8 inhibitor project, dose response (AID 743044); assay type: functional, cell-based
[14] = A2780 cell killing – plate reader, dry powder samples, cytotoxicity control, dose response (AID 743046); assay type: functional, cell-based
[15] = PAX8-dependent cell viability loss – plate reader, dry powder, dose response (AID 743049); assay type: functional, cell-based
[16] = OVCAR4 cell viability loss – plate reader, dry powder, SA11, cytotoxicity control for PAX8 inhibitor project, dose response (AID 743150); assay type: functional, cell-based; conditions: OVCAR-4
[17] = COV362 cell viability loss – plate reader, dry powder, SA12, cytotoxicity control for PAX8 inhibitor project, dose response (AID 743144); assay type: functional, cell-based
[18] = Fluorescence-based cell-based high throughput dose response assay for inhibitors of the interaction of nucleotide-binding oligomerization domain containing 2 (NOD2) and the receptor-interacting serine-threonine kinase 2 (RIPK2).; assay type: functional; conditions: Homo sapiens
[19] = COV434 cell viability loss – plate reader, dry powder, SA7, cytotoxicity control for PAX8 inhibitor project, dose response (AID 743145); assay type: functional, cell-based
[20] = IGROV1 cell killing – plate reader, dry powder samples, PAX8 inhibitor project, dose response (AID 743043); assay type: functional, cell-based; conditions: IGROV-1
[21] = toxicity toward immortalized ovarian surface epithelium – cell-based, plate reader, dry powder samples, cytotoxicity control for PAX8 inhibitor project, dose response (AID 743045); assay type: functional
[22] = PAX5 cellular inhibition readout – cell-based, plate reader, dry powder samples, selectivity assay for PAX8 inhibitor project, dose response (AID 743047); assay type: functional;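 further: HEK293 cells carrying a Pax5 driven CD19 promoter luciferase reporter; potency of inhibitors that lower reporter luminescence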
[23] = OV-90 cell viability loss – plate reader, dry powder, SA8, PAX8 inhibitor project, dose response (AID 743149); assay type: functional, cell-based
[24] = inhibitors acting on PAX2 in cells – cell-based, plate reader, dry powder samples, selectivity assay for PAX8 inhibitor project, dose response (AID 743048); assay type: functional;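 further: HEK293 cells carrying a WT1 promoter luciferase reporter driven by expressed Pax2; potency is for inhibition of Pax2 driven reporter signal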
Paired box protein Pax-8 = Paired box protein Pax-8 (Homo sapiens, UniProt Q06710); assay: PAX8 transcriptional activity inhibition in RMG-I – RMG-I cells, luciferase, cherry-pick, dose response (AID 687027); assay type: functional, cell-based;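 further: luciferase reporter driven by Pax8 target thyroperoxidase promoter measured by SteadyGlo luminescence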
[25] = inhibitors of non-replicating M. tuberculosis, dose response, luciferase, dry powder (AID 651619); assay type: functional; conditions: Mycobacterium tuberculosis
[26] = growth inhibition of replicating M. tuberculosis, dose response, counter-screen, dry powder, IC90 (AID 651617); assay type: functional; conditions: Mycobacterium tuberculosis
[27] = inhibitors of non-replicating M. tuberculosis, dose response, luciferase, dry powder (AID 651620); assay type: functional; conditions: Mycobacterium tuberculosis

T2 sequence (P78536 whole entry, the tested form may be a part): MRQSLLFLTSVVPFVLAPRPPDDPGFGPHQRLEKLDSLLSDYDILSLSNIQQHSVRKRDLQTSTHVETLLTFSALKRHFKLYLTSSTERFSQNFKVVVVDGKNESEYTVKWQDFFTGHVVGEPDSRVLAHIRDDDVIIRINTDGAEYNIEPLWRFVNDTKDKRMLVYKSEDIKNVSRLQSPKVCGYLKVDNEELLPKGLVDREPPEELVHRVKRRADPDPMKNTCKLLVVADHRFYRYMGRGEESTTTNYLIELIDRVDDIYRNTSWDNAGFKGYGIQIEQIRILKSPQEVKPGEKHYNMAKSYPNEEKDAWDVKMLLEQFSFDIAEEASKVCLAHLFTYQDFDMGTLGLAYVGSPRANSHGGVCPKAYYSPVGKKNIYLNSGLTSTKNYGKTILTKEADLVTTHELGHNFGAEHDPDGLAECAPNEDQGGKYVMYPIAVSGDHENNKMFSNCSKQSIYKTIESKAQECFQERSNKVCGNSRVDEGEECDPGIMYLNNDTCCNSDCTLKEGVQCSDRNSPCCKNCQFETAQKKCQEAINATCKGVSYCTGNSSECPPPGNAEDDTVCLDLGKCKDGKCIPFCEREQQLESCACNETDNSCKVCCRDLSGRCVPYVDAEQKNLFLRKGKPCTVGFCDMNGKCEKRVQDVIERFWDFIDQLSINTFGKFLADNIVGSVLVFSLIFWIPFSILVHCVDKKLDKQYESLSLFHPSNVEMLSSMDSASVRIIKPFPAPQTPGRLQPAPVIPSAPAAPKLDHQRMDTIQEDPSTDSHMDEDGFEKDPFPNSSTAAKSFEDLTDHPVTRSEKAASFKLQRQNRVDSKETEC
Sequence of NAD-dependent protein deacylase sirtuin-5, mitochondrial (Q9NXA8 whole entry): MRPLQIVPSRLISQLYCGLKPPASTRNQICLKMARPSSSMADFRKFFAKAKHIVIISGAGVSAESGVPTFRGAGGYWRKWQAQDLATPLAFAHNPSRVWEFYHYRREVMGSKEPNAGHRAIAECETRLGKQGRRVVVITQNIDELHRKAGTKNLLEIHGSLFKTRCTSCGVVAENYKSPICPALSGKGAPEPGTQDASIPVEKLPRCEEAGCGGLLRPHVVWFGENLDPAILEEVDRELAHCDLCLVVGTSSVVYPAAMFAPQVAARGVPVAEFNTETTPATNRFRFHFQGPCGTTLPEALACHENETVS
Sequence of Paired box protein Pax-8 (Q06710 whole entry): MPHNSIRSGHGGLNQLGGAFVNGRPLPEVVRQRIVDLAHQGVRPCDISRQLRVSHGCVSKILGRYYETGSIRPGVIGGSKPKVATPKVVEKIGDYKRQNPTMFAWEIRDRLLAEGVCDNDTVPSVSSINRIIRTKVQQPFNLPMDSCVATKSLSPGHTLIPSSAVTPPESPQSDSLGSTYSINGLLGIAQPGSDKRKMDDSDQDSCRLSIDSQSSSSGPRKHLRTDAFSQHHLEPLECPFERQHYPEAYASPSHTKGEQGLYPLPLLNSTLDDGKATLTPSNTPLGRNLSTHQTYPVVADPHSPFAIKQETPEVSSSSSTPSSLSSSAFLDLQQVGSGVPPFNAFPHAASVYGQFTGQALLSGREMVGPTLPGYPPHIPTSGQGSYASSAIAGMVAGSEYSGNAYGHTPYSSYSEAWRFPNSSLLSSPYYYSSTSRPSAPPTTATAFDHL
Sequence of COUP transcription factor 2 (P24468 whole entry): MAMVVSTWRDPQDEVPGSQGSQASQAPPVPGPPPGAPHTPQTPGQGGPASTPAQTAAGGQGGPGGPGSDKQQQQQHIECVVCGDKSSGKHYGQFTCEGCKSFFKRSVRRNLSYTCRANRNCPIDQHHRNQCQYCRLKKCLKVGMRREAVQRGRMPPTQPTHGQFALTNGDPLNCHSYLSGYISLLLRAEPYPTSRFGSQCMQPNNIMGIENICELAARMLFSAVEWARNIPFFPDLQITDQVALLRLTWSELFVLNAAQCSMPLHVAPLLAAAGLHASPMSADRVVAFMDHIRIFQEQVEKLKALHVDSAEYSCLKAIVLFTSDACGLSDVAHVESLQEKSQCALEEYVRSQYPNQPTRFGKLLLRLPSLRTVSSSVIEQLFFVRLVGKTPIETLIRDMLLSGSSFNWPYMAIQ

Cc1cc(C)c(S(=O)(=O)Nc2ncnc3ccccc23)c(C)c1
AC50 [1]: 44.2 µM (active)

Cc1ccc(-n2nc3c(=O)n(C(C)C(=O)NCc4ccccc4Cl)nc(C)c3c2C)cc1 (centres undefined)
IC50 [2]: 11.9 µM (inactive)
EC50 [3]: > 260 µM (inactive)

C[C@H]1CCCCO[C@@H](CN(C)Cc2ccncc2)[C@@H](C)CN([C@@H](C)CO)C(=O)c2cc(NC(=O)Nc3ccccc3)ccc2O1
AC50 (HEK293): 33.2 µM (active)
AC50 [4]: 10.7 µM (active)
AC50 [5]: 33.2 µM (active)
AC50 [6]: 32.9 µM (active)
AC50 [7]: 0.764 µM (active)

CCOC(=O)c1c(NC(=O)CN2C(=O)NC(C)(c3ccc(OC(F)F)cc3)C2=O)sc(C)c1C (centres undefined)
IC50 [8]: > 69.5 µM (inactive)
IC50 [9]: > 69.5 µM (inactive)

COC(=O)C1=C(C)N(Cc2cccc(C(F)(F)F)c2)C(NCc2ccc3c(c2)OCO3)=NC1c1ccc(F)cc1 (centres undefined)
IC50 [10]: > 69.5 µM (inactive)
IC50 [11]: > 69.5 µM (inactive)

CN(C)CCN(Cc1cccs1)S(=O)(=O)c1csc(C(N)=O)c1
AC50 [12]: > 30 µM (inactive)

Cc1cccc2sc(N(CCCN(C)C)C(=O)CCS(=O)(=O)c3ccccc3)nc12
AC50 [13]: 8.92 µM (active)
AC50 [14]: 6.9 µM (active)
AC50 [15]: 7.67 µM (active)
AC50 [16]: 34.8 µM (active)
AC50 [17]: 20.3 µM (active)
IC50 [18]: 6.59 µM (active)
AC50 [19]: 8.43 µM (active)
AC50 [20]: 11.5 µM (active)
AC50 [21]: 21.8 µM (active)
AC50 [22]: 43.1 µM (active)
AC50 [23]: 17.1 µM (active)
AC50 [24]: 35.7 µM (active)
AC50 (Paired box protein Pax-8): 6.18 µM (active)

COCCSc1nnc(-c2ccccc2)o1
IC90 [25]: 4 µM (active)
IC90 [26]: 16 µM (active)
IC90 [27]: 4 µM (active)
